Assays:
[1] = test system: GM-CSFR/JAK2/STAT5 pathway; experiment: CSTF-1 cell-based reporter assay; details: Homo sapiens; csTF-1 cells, GM-CSF at 2 ng/mL, 4 hours, beta-lactamase reporter; read-out: Cell Assay: CS TF-1 reporter assay IC50
Experimental: CSTF-1 Cell-Based Reporter Assay
CSTF-1 cells are derived from the human erythroleukemia cell line that is growth dependent on GM-CSF and has an intact GM-CSFR/JAK2/STAT5 pathway. The cell line contains stably integrated beta-lactamase reporter gene under the control of the […] (irf 1) response element recognized by the activated transcription factor STAT5. csTF-1 cells (Invitrogen K1219) were washed with assay media (97% OPTIMEM/0.5% dialyzed FBS/0.1 mM NEAA/1 mM Na pyr/P/S) and seeded in the same media at 5×10^5 cell/mL in T150 flask. After 16 hour incubation, cells were seeded at 2×10^5 cell/well in 50 μl volume, into Costar, clear bottom, 96-well assay plates. Serial dilutions of compounds were added to the plates with final DMSO concentration at 0.5% and GM-CSF at 2 ng/mL and the plates were then incubated at 30° C. and 5% CO2 for 4 hours. The plates were brought to room temperature before adding Substrate Mixture according to manufacturer's protocol (Invitrogen, Catalog #K1085). The assay plates containing the substrate mixture were incubated in the dark at room temperature for 2 hours. Blue and green fluorescence was measured with excitation at 409 nm and emission at 460 nm (for blue) and excitation at 409 nm and emission at 530 nm (for green) using Spectra Max Gemini EM.

JAK2 = target: T1, JAK2 (Homo sapiens, UniProt O60674); experiment: Competition binding assay to determine binding constants (Kd), JAK2
T1 construct: made in house; host or cells: T7 phage display or HEK-293 cells (alternatives)
From the text: (§1) Competition Binding Assay to Determine Binding Constants (Kd) of the Compounds Against JAK Kinases
(§2) Competition binding assays used herein were developed, validated and performed as described in Fabian et al., Nature Biotechnology 2005, 23, 329-336. Kinases were produced as fusions to T7 phage (See, Fabian et al. or WO04/015142) or alternatively, the kinases were expressed in HEK-293 cells and subsequently tagged with DNA for PCR detection (See, WO08/005,310). For the binding assays, streptavidin-coated magnetic beads were treated with biotinylated affinity ligands for 30 min at rt to generate affinity resins. The liganded beads were blocked with excess biotin and washed with blocking buffer (SeaBlock (Pierce), 1% BSA, 0.05% Tween 20, 1 mM DTT) to remove unbound ligand and to reduce non-specific binding. Binding reactions were assembled by combining kinase, liganded affinity beads, and test compounds in 1× binding buffer (20% SeaBlock, 0.17×PBS, 0.05% Tween 20, 6 mM DTT). Test compounds were prepared as 100× stocks in DMSO and rapidly diluted into the aqueous environment. DMSO was added to control assays lacking a test compound. Primary screen interactions were performed in polypropylene 384-well plates in a final volume of 34 μL, while Kd determinations were performed in polystyrene 96-well plates in a final volume of 135 μL. The assay plates were incubated at room temperature with shaking for 1 hour, long enough for binding reactions to reach equilibrium, and the affinity beads were washed extensively with wash buffer (1×PBS, 0.05% Tween 20) to remove unbound protein. The beads were then resuspended in elution buffer (1×PBS, 0.05% Tween 20, 2 μM non-biotinylated affinity ligand) and incubated at room temperature with shaking for 30 min. The kinase concentration in the eluates was measured by quantitative PCR. Each kinase was tested individually against each compound. Kds were determined using eleven serial threefold dilutions. A selectivity score, which is a quantitative measure of selectivity of a compound against a panel of enzymes, may be calculated for a compound by dividing the number of enzymes for which a compound meets a set criteria, (for example, a binding constant of 100 nM or less), by the total number of enzymes tested.

JAK3 = target: T2, JAK3 (Homo sapiens, UniProt P52333); experiment: Competition binding assay to determine binding constants (Kd), JAK3
T2 construct: made in house; host or cells: T7 phage display or HEK-293 cells (alternatives)
T2 sequence (P52333 1-1124): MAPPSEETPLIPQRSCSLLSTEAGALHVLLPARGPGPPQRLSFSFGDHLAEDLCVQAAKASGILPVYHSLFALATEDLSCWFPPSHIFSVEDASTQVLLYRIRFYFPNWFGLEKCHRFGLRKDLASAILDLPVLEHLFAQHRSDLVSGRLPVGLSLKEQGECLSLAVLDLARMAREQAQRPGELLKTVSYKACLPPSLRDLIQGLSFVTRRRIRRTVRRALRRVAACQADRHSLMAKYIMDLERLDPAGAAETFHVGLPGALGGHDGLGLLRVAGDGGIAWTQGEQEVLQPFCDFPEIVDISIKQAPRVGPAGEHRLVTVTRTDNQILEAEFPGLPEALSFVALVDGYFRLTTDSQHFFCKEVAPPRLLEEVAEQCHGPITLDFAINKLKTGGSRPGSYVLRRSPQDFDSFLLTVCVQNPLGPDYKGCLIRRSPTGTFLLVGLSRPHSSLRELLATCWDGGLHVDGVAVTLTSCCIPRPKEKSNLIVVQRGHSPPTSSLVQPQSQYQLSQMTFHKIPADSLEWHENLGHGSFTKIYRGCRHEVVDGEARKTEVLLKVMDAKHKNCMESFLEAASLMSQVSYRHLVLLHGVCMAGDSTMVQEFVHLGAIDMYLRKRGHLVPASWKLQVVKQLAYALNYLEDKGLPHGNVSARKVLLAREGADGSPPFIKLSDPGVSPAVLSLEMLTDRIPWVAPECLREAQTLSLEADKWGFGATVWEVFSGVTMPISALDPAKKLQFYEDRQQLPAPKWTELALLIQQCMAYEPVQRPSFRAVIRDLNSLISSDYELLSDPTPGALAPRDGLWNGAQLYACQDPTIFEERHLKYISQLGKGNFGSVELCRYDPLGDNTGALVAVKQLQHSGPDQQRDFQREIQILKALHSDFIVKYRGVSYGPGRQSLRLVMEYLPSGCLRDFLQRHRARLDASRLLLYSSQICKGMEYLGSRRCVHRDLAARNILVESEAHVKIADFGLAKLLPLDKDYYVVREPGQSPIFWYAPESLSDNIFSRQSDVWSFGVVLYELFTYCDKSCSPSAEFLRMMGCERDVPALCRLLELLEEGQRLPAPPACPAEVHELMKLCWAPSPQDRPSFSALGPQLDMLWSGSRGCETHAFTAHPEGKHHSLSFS
From the text: as §1, §2

TYK2 = target: T3, TYK2 (Homo sapiens, UniProt P29597); experiment: Competition binding assay to determine binding constants (Kd), TYK2
T3 construct: made in house; host or cells: T7 phage display or HEK-293 cells (alternatives)
From the text: as §1, §2

T3 sequence (P29597 whole entry): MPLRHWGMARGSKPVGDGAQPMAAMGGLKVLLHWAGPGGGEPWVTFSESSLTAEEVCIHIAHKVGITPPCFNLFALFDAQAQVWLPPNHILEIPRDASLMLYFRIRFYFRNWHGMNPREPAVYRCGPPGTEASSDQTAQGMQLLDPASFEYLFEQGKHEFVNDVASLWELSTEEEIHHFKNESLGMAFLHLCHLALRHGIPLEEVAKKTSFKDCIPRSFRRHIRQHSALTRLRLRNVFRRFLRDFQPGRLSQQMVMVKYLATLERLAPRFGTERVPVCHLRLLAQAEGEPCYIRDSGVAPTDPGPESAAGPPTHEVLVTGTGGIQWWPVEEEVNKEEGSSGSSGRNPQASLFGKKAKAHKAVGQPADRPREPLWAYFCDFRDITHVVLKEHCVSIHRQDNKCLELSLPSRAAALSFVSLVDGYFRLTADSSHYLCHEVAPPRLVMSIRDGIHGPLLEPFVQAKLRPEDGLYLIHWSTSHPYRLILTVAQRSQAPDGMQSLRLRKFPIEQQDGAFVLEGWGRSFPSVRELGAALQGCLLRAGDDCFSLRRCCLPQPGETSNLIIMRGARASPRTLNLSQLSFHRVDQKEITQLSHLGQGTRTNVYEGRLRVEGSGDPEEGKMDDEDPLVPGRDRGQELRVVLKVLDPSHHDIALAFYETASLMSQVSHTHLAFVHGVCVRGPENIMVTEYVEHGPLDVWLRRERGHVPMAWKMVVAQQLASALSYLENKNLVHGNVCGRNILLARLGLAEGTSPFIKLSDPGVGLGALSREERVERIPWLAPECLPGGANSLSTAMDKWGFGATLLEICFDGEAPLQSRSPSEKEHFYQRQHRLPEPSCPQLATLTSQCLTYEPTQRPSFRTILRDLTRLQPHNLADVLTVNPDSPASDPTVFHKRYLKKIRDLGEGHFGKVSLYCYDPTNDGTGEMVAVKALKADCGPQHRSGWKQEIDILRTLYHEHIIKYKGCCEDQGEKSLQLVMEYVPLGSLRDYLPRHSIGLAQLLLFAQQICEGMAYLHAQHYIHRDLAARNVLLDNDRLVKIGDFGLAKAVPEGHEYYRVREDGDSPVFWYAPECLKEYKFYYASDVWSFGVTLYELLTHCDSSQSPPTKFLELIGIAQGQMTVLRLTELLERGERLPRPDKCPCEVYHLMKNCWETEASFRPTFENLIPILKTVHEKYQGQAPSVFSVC
T1 sequence (O60674 whole entry): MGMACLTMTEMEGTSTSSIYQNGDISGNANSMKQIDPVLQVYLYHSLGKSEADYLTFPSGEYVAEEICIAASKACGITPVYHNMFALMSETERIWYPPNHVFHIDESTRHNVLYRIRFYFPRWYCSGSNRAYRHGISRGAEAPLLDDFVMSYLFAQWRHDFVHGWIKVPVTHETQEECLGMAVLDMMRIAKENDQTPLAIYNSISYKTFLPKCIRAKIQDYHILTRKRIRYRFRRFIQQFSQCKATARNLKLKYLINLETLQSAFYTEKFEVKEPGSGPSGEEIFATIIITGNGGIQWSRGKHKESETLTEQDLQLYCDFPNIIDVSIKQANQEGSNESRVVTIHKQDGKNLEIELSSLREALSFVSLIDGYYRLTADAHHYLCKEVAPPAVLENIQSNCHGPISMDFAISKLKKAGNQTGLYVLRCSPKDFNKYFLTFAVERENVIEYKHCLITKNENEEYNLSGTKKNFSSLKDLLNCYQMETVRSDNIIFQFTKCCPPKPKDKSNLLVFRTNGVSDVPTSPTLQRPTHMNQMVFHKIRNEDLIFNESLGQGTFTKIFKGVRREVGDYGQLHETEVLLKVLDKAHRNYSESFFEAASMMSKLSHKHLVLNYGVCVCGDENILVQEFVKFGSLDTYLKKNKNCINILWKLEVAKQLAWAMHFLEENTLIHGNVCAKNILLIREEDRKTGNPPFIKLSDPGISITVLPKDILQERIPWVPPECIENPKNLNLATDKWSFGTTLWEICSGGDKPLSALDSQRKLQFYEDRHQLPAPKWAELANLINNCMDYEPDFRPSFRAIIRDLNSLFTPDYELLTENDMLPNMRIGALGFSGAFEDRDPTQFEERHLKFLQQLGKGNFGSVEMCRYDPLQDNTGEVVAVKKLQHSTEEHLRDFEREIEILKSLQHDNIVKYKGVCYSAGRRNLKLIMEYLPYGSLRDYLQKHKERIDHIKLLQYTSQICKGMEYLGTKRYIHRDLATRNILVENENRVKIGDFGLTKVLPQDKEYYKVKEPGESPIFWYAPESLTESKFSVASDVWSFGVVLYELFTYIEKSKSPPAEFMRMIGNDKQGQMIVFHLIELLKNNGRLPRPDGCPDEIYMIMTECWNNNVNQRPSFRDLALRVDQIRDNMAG

Structure (SMILES) | IC50 [1] [nM] | Kd (JAK2) [nM] | Kd (JAK3) [nM] | Kd (TYK2) [nM]
Cc1cc(Nc2nc(C(F)(F)c3ccc(F)cn3)nc3c2cnn3C)n[nH]1 [Example 34, 6-(difluoro(5-fluoropyridin-2-yl)methyl)-1-methyl-N-(5-methyl-1H-pyrazol-3-yl)-1H-pyrazolo[3,4-d]pyrimidin-4-amine] | 100 to 500 | ≤ 1 | 10 to 100 | ≤ 10
Cc1cc(Nc2nc(C(F)(F)c3ccc(F)cc3)nc3nc(N4CCN(C)CC4)sc23)n[nH]1 [Example 38, 5-(difluoro(4-fluorophenyl)methyl)-N-(5-methyl-1H-pyrazol-3-yl)-2-(4-methylpiperazin-1-yl)thiazolo[4,5-d]pyrimidin-7-amine] | ≤ 100 | 1 to 10 | ≤ 10 | ≤ 10
CCn1ccc2c(Nc3cc[nH]n3)nc(S(=O)(=O)c3ccc(F)cc3)nc21 [Example 8, 7-ethyl-2-(4-fluorophenylsulfonyl)-N-(1H-pyrazol-3-yl)-7H-pyrrolo[2,3-d]pyrimidin-4-amine] | ≤ 100 | ≤ 1 | ≤ 10 | ≤ 10
Cc1cc(Nc2nc(C(F)(F)c3ccc(F)cc3)nc3nn(C)cc23)n[nH]1 [Example 20, 6-(difluoro(4-fluorophenyl)methyl)-2-methyl-N-(5-methyl-1H-pyrazol-3-yl)-2H-pyrazolo[3,4-d]pyrimidin-4-amine] | 100 to 500 | ≤ 1 | 10 to 100 | ≤ 10
Cc1cc(Nc2nc([S+]([O-])c3ccc(F)cc3)nc3[nH]ccc23)n[nH]1 (racemic) [Example 2, (R,S)-2-(4-fluorophenylsulfinyl)-N-(5-methyl-1H-pyrazol-3-yl)-7H-pyrrolo[2,3-d]pyrimidin-4-amine] | ≤ 100 | ≤ 1 | ≤ 10 | ≤ 10
Cc1cc(Nc2nc(C(F)(F)c3ccc(F)cc3)nc3ncsc23)n[nH]1 [Example 41, 5-(difluoro(4-fluorophenyl)methyl)-N-(5-methyl-1H-pyrazol-3-yl)thiazolo[4,5-d]pyrimidin-7-amine] | 100 to 500 | 1 to 10 | 10 to 100 | ≤ 10
CCn1ncc2c(Nc3cc(C)[nH]n3)nc(Sc3ccc(F)cc3)nc21 [Example 43, 1-ethyl-6-((4-fluorophenyl)thio)-N-(5-methyl-1H-pyrazol-3-yl)-1H-pyrazolo[3,4-d]pyrimidin-4-amine] | 100 to 500 | > 10 | > 100 | 10 to 100
CCn1ccc2c(Nc3cc(C)[nH]n3)nc(S(=O)(=O)c3ccc(F)cc3)nc21 [Example 7, 7-ethyl-2-(4-fluorophenylsulfonyl)-N-(5-methyl-1H-pyrazol-3-yl)-7H-pyrrolo[2,3-d]pyrimidin-4-amine] | ≤ 100 | ≤ 1 | ≤ 10 | ≤ 10
Cn1ccc2c(Nc3cc[nH]n3)nc(S(=O)(=O)c3ccc(F)cc3)nc21 [Example 6, 2-(4-fluorophenylsulfonyl)-7-methyl-N-(1H-pyrazol-3-yl)-7H-pyrrolo[2,3-d]pyrimidin-4-amine] | ≤ 100 | ≤ 1 | ≤ 10 | ≤ 10
Cn1ccc2c(Nc3cc[nH]n3)nc([S+]([O-])c3ccc(F)cc3)nc21 (racemic) [Example 5, (R,S)-2-(4-fluorophenylsulfinyl)-7-methyl-N-(1H-pyrazol-3-yl)-7H-pyrrolo[2,3-d]pyrimidin-4-amine] | ≤ 100 | ≤ 1 | 10 to 100 | ≤ 10
Cc1cc(Nc2nc(S(=O)(=O)c3ccc(F)cc3)nc3c2ccn3CCO)n[nH]1 [Example 13, 2-(2-(4-fluorophenylsulfonyl)-4-(5-methyl-1H-pyrazol-3-ylamino)-7H-pyrrolo[2,3-d]pyrimidin-7-yl)ethanol] | ≤ 100 | ≤ 1 | ≤ 10 | ≤ 10
C=Cn1ncc2c(Nc3cc(C)[nH]n3)nc(C(F)(F)c3ccc(F)cc3)nc21 [Example 33, 6-(difluoro(4-fluorophenyl)methyl)-N-(5-methyl-1H-pyrazol-3-yl)-1-vinyl-1H-pyrazolo[3,4-d]pyrimidin-4-amine] | 100 to 500 | 1 to 10 | 10 to 100 | 10 to 100
Cc1cc(Nc2nc(S(=O)(=O)c3ccc(F)cc3)nc3c2cnn3CCN2CCOCC2)n[nH]1 [Example 29, 6-(4-fluorophenylsulfonyl)-N-(5-methyl-1H-pyrazol-3-yl)-1-(2-morpholinoethyl)-1H-pyrazolo[3,4-d]pyrimidin-4-amine] | 100 to 500 | ≤ 1 | 10 to 100 | ≤ 10
Cc1cc(Nc2nc(C(F)(F)c3ccc(F)cc3)nc3c2cnn3CCN2CCOCC2)n[nH]1 [Example 32, 6-(difluoro(4-fluorophenyl)methyl)-N-(5-methyl-1H-pyrazol-3-yl)-1-(2-morpholinoethyl)-1H-pyrazolo[3,4-d]pyrimidin-4-amine] | 100 to 500 | 1 to 10 | 10 to 100 | ≤ 10
Cc1cc(Nc2nc(S(=O)(=O)c3ccc(F)cc3)nc3c2cnn3-c2ccccc2)n[nH]1 [Example 31, 6-(4-fluorophenylsulfonyl)-N-(5-methyl-1H-pyrazol-3-yl)-1-phenyl-1H-pyrazolo[3,4-d]pyrimidin-4-amine] | > 500 | 1 to 10 | > 100 | 10 to 100
CS(=O)(=O)CCn1ccc2c(Nc3cc[nH]n3)nc(S(=O)(=O)c3ccc(F)cc3)nc21 [Example 18, 2-(4-fluorophenylsulfonyl)-7-(2-(methylsulfonyl)ethyl)-N-(1H-pyrazol-3-yl)-7H-pyrrolo[2,3-d]pyrimidin-4-amine] | 100 to 500 | ≤ 1 | ≤ 10 | ≤ 10

Source: patent US20130303533A1, “AZOLOPYRIDINE AND AZOLOPYRIMIDINE COMPOUNDS AND METHODS OF USE THEREOF” (AMBIT BIOSCIENCES CORPORATION, priority 2010, published 2013)
